Experiments:
[1] = Solubility of polymorphic Form A and Form B in de-ionized water
Description: Lacosamide polymorphic Forms A and B were tested for solubility studies by dissolving the Form A or Form B in de-ionized water.

[2] = Drying of Example 3 wet mass at rising temperatures, polymorph checked by XRD; format: physicochemical; settings: for Product characterized (based on XRD thereof) as: 6 hours
Description: Lacosamide (20 g) was added to ethyl acetate (120 ml) at ambient temperature and heated at 75° C. to 80° C. This was cooled to ambient temperature in 1 hour and then filtered. […] The wet mass was dried at the following temperatures each for the specified time and analyzed.

[3] = Effect of time on stability of polymorphic form; format: physicochemical
Description: Polymorphic Form A of lacosamide was kept at 0° C. to 5° C. for 3 months.
Polymorphic Form B of lacosamide was kept at 0° C. to 5° C. for 7 months.

Structure (SMILES) | Solubility status in de-ionized water (1 in 45 parts) [1] | Product characterized (based on XRD thereof) as ([2]; Example 3 wet mass dried at 35-40 °C) | Product characterized (based on XRD thereof) as ([2]; Example 3 wet mass dried at 40-45 °C) | Product characterized (based on XRD thereof) as ([2]; Example 3 wet mass dried at 45-50 °C) | Product characterized (based on XRD thereof) as ([2]; Example 3 wet mass dried at 50-55 °C) | Product characterized (based on XRD thereof) as ([2]; Example 3 wet mass dried at 55-60 °C) | Product characterized (based on XRD thereof) as ([2]; Example 3 wet mass dried at 60-65 °C) | Change in polymorph pattern on heating ([2]; heated for 36 hours in the temperature range of 35° C. to 65° C.) | Polymorphic form on reanalysis after storage ([3]; kept at 0° C. to 5° C. for 3 months) | Polymorphic form on reanalysis after storage ([3]; kept at 0° C. to 5° C. for 7 months)
COC[C@@H](NC(C)=O)C(=O)NCc1ccccc1 [Form A, (R)-2-acetamido-N-benzyl-3-methoxypropionamide] | Sparingly soluble | Crystalline Form A | Crystalline Form A | Crystalline Form A | Crystalline Form A | Crystalline Form A | Crystalline Form A | no change in polymorph pattern | characterized as Form A | –
COC[C@@H](NC(C)=O)C(=O)NCc1ccccc1 [Form B, (R)-2-acetamido-N-benzyl-3-methoxypropionamide] | – | – | – | – | – | – | – | – | – | characterized as Form B
